The results in this text go back to the supplement of paper PMC10307832.

What all share (test): relative viability (nuclei count vs DMSO), 5 days (fraction); higher = more cells survive
Compound in assay [1]: C1COCCN1C2=NC(=NC3=C2OC4=C3C=CC=N4)C5=CC(=CC=C5)NC(=O)C6=CN=C(C=C6)N + CCNC(=O)c1noc(-c2cc(C(C)C)c(O)cc2O)c1-c1ccc(CN2CCOCC2)cc1 [Luminespib] (partner 0.01 µM)
The method, boiled down:
(§1)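 Relative viability was taken as the ratio of nuclei in treated wells to nuclei in vehicle wells. Lung cancer cell lines in 1536-well plates received compounds by pin tool one day after seeding, either one drug alone or a fixed anchor-drug dose plus five library-drug doses (not always all listed) in √10 steps. Nuclei were counted on 4× images after 5 days of treatment, and values are medians of duplicate plates.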

Compound in assay [2]: C1COCCN1C2=NC(=NC3=C2OC4=C3C=CC=N4)C5=CC(=CC=C5)NC(=O)C6=CN=C(C=C6)N + CC(C)C[C@H](NC(=O)[C@H](Cc1ccccc1)NC(=O)c1cnccn1)B(O)O [Bortezomib] (partner 0.002 µM)
The method, boiled down: as §1

Compound in assay [3]: Nc1ccccc1NC(=O)c1ccc(CNC(=O)OCc2cccnc2)cc1 [Entinostat] + Cc1nc(Nc2ncc(C(=O)Nc3c(C)cccc3Cl)s2)cc(N2CCN(CCO)CC2)n1 [Dasatinib] (partner 0.075 µM)
The method, boiled down: as §1

Compound in assay [4]: Nc1ccccc1NC(=O)c1ccc(CNC(=O)OCc2cccnc2)cc1 [Entinostat] + C[C@]1(O)C[C@@H](c2nc(-c3ccc4ccc(-c5ccccc5)nc4c3)c3c(N)nccn32)C1 [Linsitinib] (partner 1 µM)
The method, boiled down:
as §1

Consider UMC-11, for which the relative viability was 1.13 in assay [1] (first compound 0.02 µM); 1.07 in assay [1] (first compound 0.06325 µM); 1.02 in assay [1] (first compound 0.2 µM); 1.07 in assay [1] (first compound 0.6325 µM); 0.628 in assay [1] (first compound 2 µM); 0.79 in assay [2] (first compound 0.02 µM). Further, the relative viability amounted to 0.838 in assay [2] (first compound 0.06325 µM); 0.669 in assay [2] (first compound 0.2 µM); 1.08 in assay [2] (first compound 0.6325 µM); 0.519 in assay [2] (first compound 2 µM); 0.468 in assay [3] (first compound 0.02 µM); 0.478 in assay [3] (first compound 0.06325 µM). Further, the relative viability was found to be 0.399 in assay [3] (first compound 0.2 µM); 0.193 in assay [3] (first compound 0.6325 µM); 0.17 in assay [3] (first compound 2 µM); 1.11 in assay [4] (first compound 0.02 µM); 1 in assay [4] (first compound 0.06325 µM); 0.715 in assay [4] (first compound 0.2 µM). The relative viability in assay [4] (first compound 0.6325 µM) turned out to be 0.214; in assay [4] (first compound 2 µM), 0.142.
